Source: patent US20030096237A1, “Determination of the ability of patients to respond to a tumor treatment” (priority 2000, published 2003)

Tested on: CNCM I-2546
Experiment: oligonucleotide array analysis of IFN-α modulated gene expression
Format: cell-based, human
Procedure: All these cell lines were cultured in RPMI medium supplemented with 10% FCS, glutamine (2 mM), sodium pyruvate (1 mM), non-essential amino acids and HEPES buffer (10 mM) (all from GIBCO Life Sciences, Paisley, UK). When confluent, the cells were passaged by trypsinization.
Cultured melanoma cells were harvested by scraping and total cellular RNA was extracted. 10 μg from each sample were used directly as templates for cDNA synthesis using a commercial kit (Roche Molecular Biochemicals, Rotkreuz, Switzerland). The T7 promoter sequence incorporated into the cDNA synthesis primer allowed template amplification and biotin labeling by in vitro transcription using a commercial kit (Affymetrix, Santa Clara, Calif.). After alkaline heat fragmentation […] was hybridised to the array (Affymetrix, Santa Clara, Calif.) and all subsequent steps were performed following standard procedures as supplied with the arrays. Raw data were collected with a confocal laser scanner (Hewlett Packard, Palo Alto, Calif.) using GeneChip software v3.1 (Affymetrix, Santa Clara, Calif.).
Raw data were normalized based on the total chip signal obtained upon hybridisation of ME15 cell line cDNA. This array was selected because: i) the 5′/3′ intensity ratio of control genes was smaller than 3; ii)>25% of the genes are called “present” by Genechip; iii) the image appearance is homogeneous with low background and no sign of mechanical chip damage.
The normalized average difference (nAD) between the signals of the perfect and of the mismatch probesets for each gene was used as the expression level of a given gene. At least one nAD value in a pairwise comparison of data has to exceed 50 to be included. Based on nAD, change factors related to IFN-α exposure were also calculated. Negative nAD values were set to 20 in order to avoid the calculation of artificially high modifications. In order to exclude artefacts, only genes with robust change factors, greater than 2-fold, were included in the analysis. […] Genes were clustered according to their mode of regulation.
Total cellular RNA was extracted from the sensitive and resistant melanoma cell lines identified above, reverse transcribed and processed for hybridization to an oligonucleotide array (Hu6800FL, PN 900183) containing probe sets derived from 7000 full-length human genes. Expression levels for each gene were calculated as normalized average difference (nAD, see materials and methods).
Patterns of genes expressed in IFN-α sensitive and resistant melanoma cell lines were investigated upon 48 hour culture in the presence of IFN-α. CNCM I-2546 and CNCM I-2545 were studied in detail.
In Table 2 below, CNCM I-2546 and CNCM I-2545 cultured for 48 hours in the absence or in the presence of 100 U/ml IFN-α were used to assay cytokine modulated gene expression as matched with data obtained in fibrosarcoma cells. This analysis yielded six clusters of genes. […] Data are presented as average difference of signal intensity between match and mismatch probesets.
In Table 3 below, CNCM I-2546 and CNCM I-2545 cell lines cultured for 48 hours in the absence or in the presence of 100 U/ml IFN-α were used to identify novel cytokine induced genes whose expression was not found to be modulated in fibrosarcoma cells. Cluster 1 includes genes inducible in the CNCM I-2546 sensitive but not in the CNCM I-2545 resistant cell line. Cluster 2 comprises genes inducible in both lines. Data are presented as average difference of signal intensity between match and mismatch probesets.

[1] = CNCM I-2546, IFN-α 100 U/ml 48 hours

change factor (CF) D32050 alanyl-trna synthetase [1]: 19.33
change factor (CF) D78132 rheb gene, ras-related gtp binding protein gene [1]: 1.58
change factor (CF) L13210 mac-2 binding protein [1]: 3.54
change factor (CF) L35249 vacuolar h + -atpase mr 56,000 subunit (ho57) [1]: 1.47
change factor (CF) L37043 casein kinase i epsilon [1]: 21.05
change factor (CF) L40387 thyroid receptor interactor (trip14) [1]: 3.25
change factor (CF) L42243 ifnar2 gene (interferon receptor) [1]: −1.3
change factor (CF) M19650 2′,3′-cyclic nucleotide 3prime-phosphodiesterase [1]: 3.89
change factor (CF) U18018 ela enhancer binding protein (ela-f) [1]: 2.18
change factor (CF) U47025 fetal brain glycogen phosphorylase b [1]: 3.79
change factor (CF) U50327 protein kinase c substrate 80k-h gene (prkcsh) [1]: 2.9
change factor (CF) U50648 interferon-inducible rna-dependent protein kinase (pkr) [1]: 2.55
change factor (CF) U65579 mitochondrial nadh dehydrogenase-ubiquinone [1]: 2.43
change factor (CF) U69126 fuse binding protein 2 (fbp2) [1]: 2.92
change factor (CF) U70063 human acid ceramidase [1]: 1.57
change factor (CF) U91316 acyl-coa thioester hydrolase [1]: 4.01
change factor (CF) X70848 protein phosphatase 1, catalytic subunit [1]: 2.03
change factor (CF) X90846 mixed lineage kinase 2 [1]: −1.46
change factor (CF) X95325 dna binding protein a variant [1]: 5.47
change factor (CF) Z26491 gene catechol o-methyltransferase [1]: 3.62
change factor (CF) Z47055 farnesyl pyrophosphate synthetase like [1]: 1.01
Substance: IFN-α
change factor (CF) D28137 bst-2 [1]: 9.89
change factor (CF) D49824 hla-b null allele [1]: 5.42
change factor (CF) D50914 EST [1]: 2.26
change factor (CF) HG658 major histocompatibility complex, class 1 c [1]: 9.85
change factor (CF) HG1612 macmarcks [1]: 2.59
change factor (CF) HG2917 major histocompatibility complex, class i, e [1]: 4.53
change factor (CF) J00105 beta-2 microglobulin gene [1]: 4.86
change factor (CF) J00212 leukocyte interferon (ifn-alpha) [1]: −1.82
change factor (CF) J03909 gamma-interferon-inducible protein (ip-30) [1]: 1.85
change factor (CF) J04164 interferon-inducible protein 27-sep [1]: 102.3
change factor (CF) J04182 lysosomal membrane glycoprotein-1 (lamp1) [1]: 1.69
change factor (CF) J04444 cytochrome c-1 gene [1]: 3.16
change factor (CF) K01900 lymphocyte interferon alpha type 201 [1]: 0.55
change factor (CF) K03515 neuroleukin [1]: 3.37
change factor (CF) L07633 interferon-gamma [1]: 1.52
change factor (CF) M13755 interferon-induced 17-kda/15-kda protein [1]: 34.8
change factor (CF) M30818 interferon-induced cellular resistance mediator protein [1]: −3.88
change factor (CF) M31013 nonmuscle myosin heavy chain (nmhc) [1]: 2.34
change factor (CF) M34338 spermidine synthase [1]: 2.29
change factor (CF) M60784 ul snrnp-specific protein [1]: 8
change factor (CF) M65028 heterogeneous nuclear ribonucleoprotein a/b [1]: 1.13
change factor (CF) M79462 pml-1 [1]: −1.15
change factor (CF) M92642 alpha-1 type xvi collagen (col16a1) [1]: 0
change factor (CF) M94880 mhc class i (hla-a*8001) [1]: 3.61
change factor (CF) M97935 transcription factor isgf-3 [1]: 13.8
change factor (CF) M98343 amplaxin (ems1) [1]: 6.05
change factor (CF) S81914 iex-1 = radiation-inducible immediate-early gene [1]: 9.06
change factor (CF) U01824 glutamate/aspartate transporter [1]: 3.55
change factor (CF) U09579 melanoma differentiation associated (mda-6) [1]: 3.35
change factor (CF) U18009 chromosome 17q21 clone lf113 [1]: 2.93
change factor (CF) U22970 16-jun gene, interferon-inducible peptide (6-16) [1]: 53.95
change factor (CF) U41515 dss1 [1]: −1.04
change factor (CF) U51127 interferon regulatory factor 5 [1]: 4.8
change factor (CF) U52513 rig-g [1]: 0.96
change factor (CF) U53830 interferon regulatory factor 7a [1]: 10.85
change factor (CF) U61263 acetolactate synthase homolog [1]: 2.09
change factor (CF) U65932 extracellular matrix protein 1 (ecm1) [1]: 2.02
change factor (CF) U72206 guanine nucleotide regulatory factor (lfp40) [1]: 3.06
change factor (CF) U72882 interferon-induced leucine zipper protein (ifp35) [1]: 24.1
change factor (CF) U78525 human eukaryotic translation initiation factor (eif3) [1]: 1.14
change factor (CF) X04412 plasma gelsolin [1]: 2.48
change factor (CF) X07730 prostate specific antigen [1]: 5.6
change factor (CF) X15949 interferon regulatory factor-2 (irf-2) [1]: −2.35
change factor (CF) X57351 1-8d gene from interferon-inducible gene family [1]: 113.8
change factor (CF) X57522 ring4 cdna [1]: 3.85
change factor (CF) X67325 p27 [1]: 19.5
change factor (CF) X76538 mpv17 [1]: 3.06
change factor (CF) X96401 rox protein [1]: 3.21
change factor (CF) Y00264 amyloid a4 precursor [1]: 2.42
change factor (CF) Z56281 interferon regulatory factor 3 [1]: 5.8
nAD D28137 bst-2 (Table 3, CNCM I-2546 (+) IFN-α 100 U/ml 48 hours, (−) 28): 305
change factor (CF) D28137 bst-2 (Table 3, CNCM I-2546, IFN-α 100 U/ml 48 hours): 9.89
